What all share (assay type): physicochemical
A short description of data set [1]: Evaluation of maximum absorption wavelength (absorption spectrum in tetrahydrofuran solution). The note with it: 1×10^−6 mol/L.
Data set [2] in a line: Evaluation of heat stability (heat resistance), powder heated at 180° C. for 5 minutes. The note with it: oven 180° C. for 5 minutes, A/A0×100, absorbance in tetrahydrofuran. The protocol:
(§1) Heat stability of each compound was evaluated by the following procedure. 10 mg of the powder of each compound was dissolved in 500 mL of tetrahydrofuran, and the absorption spectrum was measured to obtain a reference absorbance (A0). On the other hand, 10 mg of the powder of each compound was weighed in a 4 cm square aluminum cup, placed in an oven, and heated at 180° C. for 5 minutes. The entire amount of the powder after heating was dissolved in 500 mL of tetrahydrofuran, and the absorption spectrum was measured to obtain an absorbance (A) after the heating test. The residual rate of each compound was calculated by the following expression to evaluate heat stability.
Residual rate of compound (%)=A/A0×100

Data set [3] is described as follows: Production of coloring resin composition (kneading with polybutylene terephthalate at 190° C.). The settings on record: 1 g colorant with 100 g polybutylene terephthalate, biaxial extruder, cylinder temperature 190° C. The protocol:
Using a henschel mixer, a blend of 100 g of polybutylene terephthalate (manufactured by Wintech Polymer Ltd., trade name, DURANEX 2002, melting point: 225° C.) and 1 g of the compound according to the embodiment of the present invention (compound (1-48)) was supplied to a biaxial extruder (equipment: TEX28V manufactured by Japan Steel Works, Ltd., screw speed: 200 rotations per minute (rpm)), and kneading was performed at a cylinder temperature of 190° C. to obtain a coloring resin pellet (coloring resin composition). The torque of the extruder was stable and extrusion could be continued, and the discharged strands could be stably conveyed to the pelletizer.
A coloring resin pellet was obtained in the same manner as in Example 25, except that the compound (1-48) of Example 25 was changed to OIL BLACK HBB (manufactured by Orient Chemical Industries Co., Ltd., trade name).

Data set [4] is described as follows: Production of toner (melting and mixing with resin at 150° C.). The settings on record: 3 g compound with 100 g styrene-acrylic acid ester copolymer, melted and mixed at 150° C. The protocol:
After mixing and pulverizing 3 g of the compound according to the embodiment of the present invention (compound (1-36)) and 100 g of a resin for toner [styrene-acrylic acid ester copolymer; HIMER TB-1000F (trade name, manufactured by Sanyo Chemical Industries, Ltd.)] with a ball mill, the resultant was heated at 150° C. to be melted and mixed, and the results were cooled, roughly pulverized using a hammer mill, and then finely pulverized using a fine pulverizer with an air-jet system. Furthermore, particles which have a particle diameter of 1 to 20 μm were classified and selected to produce a toner.
900 g of carrier iron powder (EFV250/400, trade name, manufactured by Powdertech Co., Ltd.) were uniformly mixed with 10 g of the toner to prepare a developer. Using this developer, copying was performed with a dry type plain paper electrophotographic copier [NP-5000, trade name, manufactured by Canon Inc.].

A short description of data set [5]: Evaluation 2 of heat stability, powder heated at 200° C. for 5 minutes. The note with it: oven 200° C. for 5 minutes, A2/A0×100, absorbance in tetrahydrofuran. The protocol: as §1, with “200°” for “180°”, “(A2)” for “(A)”
Residual rate of compound (%)=A2/A0×100

[6] abbreviates: optical path length 10 mm (Table 7).
Where [7] appears, read: optical path length 10 mm (Table 9).

As to `CC(=O)c1ccccc1N=Nc1ccc(N=Nc2ccc3c4c(cccc24)NC(C)(C)N3)c2ccccc12` [(1-48)], in data set [1] (setting [6]), the Absorption maximum wavelength is on record as 624 nm and the “Molar light absorption coefficient” value is reported as 34,100 L · mol^−1 · cm^−1. Besides, in data set [2], the “Residual rate of compound” value was 99%. Further, in data set [3], the “Contamination due to pyrolysis in kneading of coloring resin pellet” value is “No contamination due to pyrolysis was observed”.

`CC1(C)Nc2cccc3c(N=Nc4ccc(N=Nc5ccccc5[N+](=O)[O-])c5ccccc45)ccc(c23)N1` [(1-36)]: in data set [1] (setting [6]), the Absorption maximum wavelength is 638 nm and the “Molar light absorption coefficient” value is reported as 30,100 L · mol^−1 · cm^−1. Moreover, the “Residual rate of compound” value in data set [2] came out at 98%. The “Pyrolysis in melting and mixing in the toner production” value in data set [4] is “Pyrolysis in melting and mixing in the toner production was reduced”.

Consider `CC1(C)Nc2cccc3c(N=Nc4ccc(N=Nc5ccccc5)c5ccccc45)ccc(c23)N1` [Comparative compound C, reference compound], for which, in data set [1] (setting [7]), the Absorption maximum wavelength amounted to 607 nm and the “Molar light absorption coefficient” value was 32000 L/mol/cm. Further, in data set [5], the “Residual rate of compound” value turned out to be 59%.

With `CC1(C)Nc2cccc3ccc(N=Nc4ccc(N=Nc5ccccc5Cl)c5ccccc45)c(c23)N1` [(3-1)], in data set [1] (setting [7]), the Absorption maximum wavelength worked out at 612 nm and the “Molar light absorption coefficient” value is 36300 L/mol/cm. In data set [5], the “Residual rate of compound” value is given as 83%.

For the origin of these results see patent US20210214560A1, “COMPOUND, COLORING COMPOSITION, INK, TONER, COLORING RESIN COMPOSITION, AND COMPOSITION FOR DYEING FIBER” (FUJIFILM Corporation, priority 2018, published 2021).
